Test results reported in ChEMBL document CHEMBL5576078, “Discovery of a potent, orally available furopyridine derivative as a novel selective bromodomain and extra-terminal domain (BET)-first bromodomain (BD1) inhibitor” (Bioorg Med Chem Lett, 2024).
pIC50: −log10 of the molar value.

Experiments:
[1] = Inhibition of LPS induced IL-6 production in HMVEC cells; conditions: Homo sapiens
[2] = target: T1, Bromodomain-containing protein 4 (Homo sapiens, UniProt O60885); experiment: Inhibition of BRD4 BD1 (unknown origin) by TR-FRET assay
[3] = target: T1, Bromodomain-containing protein 4; experiment: Inhibition of BRD4 BD2 (unknown origin) by TR-FRET assay
[4] = target: T1, Bromodomain-containing protein 4; experiment: Inhibition of BRD4 BD1 (unknown origin)

SMILES | pIC50 [1] | pIC50 [2] | pIC50 [3] | pIC50 [4]
Cc1sc2c(c1C)C(c1ccc(Cl)cc1)=N[C@@H](CC(=O)OC(C)(C)C)c1nnc(C)n1-2 | 7.35 |  |  | 
C[C@@H]1CN(S(C)(=O)=O)CCN1Cc1cc2c(=O)n(C)cc(-c3cccc(NS(C)(=O)=O)c3)c2o1 |  | 7.57 | 5.82 | 
C[C@@H]1CN(S(C)(=O)=O)CCN1Cc1cc2c(=O)n(C)cc(-c3cc(NS(C)(=O)=O)ccc3OCC3CC3)c2o1 |  | 7.96 | 7.70 | 
C[C@@H]1CN(S(C)(=O)=O)CCN1Cc1cc2c(=O)n(C)cc(-c3nc(Cl)c(Cl)n3CC3CCOCC3)c2o1 |  | 6.82 | 5.06 | 
C[C@@H]1CN(S(C)(=O)=O)CCN1Cc1cc2c(=O)n(C)cc(-c3nccnc3OCC3CC3)c2o1 |  | 7.74 | 5.80 | 
C[C@@H]1CN(S(C)(=O)=O)CCN1Cc1cc2c(=O)n(C)cc(-c3cc(Cl)nn3CC3CCOCC3)c2o1 |  | 6.74 | 5.44 | 
C[C@@H]1CN(S(C)(=O)=O)CCN1Cc1cc2c(=O)n(C)cc(-c3nc(Cl)cn3CC3CCOCC3)c2o1 |  | 7.28 | < 5.00 | 
CC(=O)Nc1cc(-c2cn(C)c(=O)c3cc(CN4CCN(S(C)(=O)=O)C[C@H]4C)oc23)ccn1 |  | 7.20 | 6.19 | ≥ 7.00
